This is an account of results in ChEMBL document CHEMBL1130956 (Bioorg Med Chem Lett, 1998).

Assay [1] deals with Cavia porcellus. The assay is described as follows: In vivo activity was determined after oral administration for 1 hr in a guinea pig efficacy model for allergic airway obstruction. The class given is functional.
The target in assay [2] is T1, Cysteinyl leukotriene receptor 1 (Cavia porcellus, UniProt Q2NNR5).
T1 sequence (Q2NNR5 whole entry): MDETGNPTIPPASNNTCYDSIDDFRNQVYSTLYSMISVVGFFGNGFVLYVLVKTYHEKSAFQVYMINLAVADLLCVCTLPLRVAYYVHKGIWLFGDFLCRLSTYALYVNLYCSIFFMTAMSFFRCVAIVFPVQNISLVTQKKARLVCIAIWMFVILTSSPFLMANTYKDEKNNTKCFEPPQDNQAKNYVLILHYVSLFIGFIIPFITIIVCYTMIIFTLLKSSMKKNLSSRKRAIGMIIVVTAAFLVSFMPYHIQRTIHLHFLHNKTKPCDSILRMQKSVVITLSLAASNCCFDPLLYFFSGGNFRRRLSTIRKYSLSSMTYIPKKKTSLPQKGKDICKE
The assay is described as follows: Binding affinity against leukotriene D4 receptor in [3H]LTD4 binding assay.

The test system of another assay is U-937. The assay can be described thus: Ability to mobilize Ca+2 in LTD4 dependent Ca+2 mobilization assay in differentiated human monocytic U-937 cells. The class given is functional, cell-based.
Assay [3] deals with Cavia porcellus. The assay can be described thus: In vivo activity was determined after oral administration for 2 hr in a guinea pig efficacy model for allergic airway obstruction. The class given is functional.
The subject of assay [4] is Cavia porcellus. The assay is described as follows: In vivo activity was determined after 1 mg/kg oral administration for 2 hrs in a guinea pig efficacy model for allergic airway obstruction. Type of assay: functional.
Assay [5] concerns Cavia porcellus. The assay is described as follows: In vivo activity was determined after 1 mg/kg oral administration for 1 hr in a guinea pig efficacy model for allergic airway obstruction. The class given is functional.
For assay [6], the system named is Cavia porcellus. The assay can be described thus: In vivo activity was determined after oral administration for 2 hrs in a guinea pig efficacy model for allergic airway obstruction. The class given is functional.

Structures are written as SMILES.

A word on the ED50: it is the dose that gives a 50% effect, or the effect in half of the subjects. Read a high ED50 as weaker potency. As a reminder, the IC50 is the concentration needed to halve the response being measured. Take `CCN(CC)C(=O)n1cc(Cc2ccc(C(=O)NS(=O)(=O)c3ccccc3C)cc2OC)c2cc(NC(=O)OC3CCCC3)ccc21`: it took a dose of 1.2 mg/kg to reach the 50% effect level in the assay with Cavia porcellus [1] (ED50). Besides, the IC50 was found to be 0.5 nM in assay [2] and 0.8 nM with U-937.
In turn, `COc1cc(C(=O)NS(=O)(=O)c2ccccc2C)ccc1Cc1cn(C(N)=O)c2ccc(NC(=O)OC3CCCC3)cc12` displayed a median effective dose (ED50) with Cavia porcellus [1] of 1.6 mg/kg. For the same compound, the values for the IC50 (in assay [2]; in the assay with U-937) were 0.5 nM and 0.3 nM, respectively.
Consider `COc1cc(C(=O)NS(=O)(=O)c2ccccc2C)ccc1Cc1cn(C(=O)N(c2ccccc2)c2ccccc2)c2ccc(NC(=O)OC3CCCC3)cc12`, for which the values for the IC50 (in assay [2]; in the assay with U-937) were 2 nM and 0.4 nM, respectively. This compound also gave an ED50 in the assay with Cavia porcellus [3] of 1.1 mg/kg.
As usually defined, the inhibition in vivo is the drop in the measured response relative to a control, in per cent. Read a high inhibition in vivo as strong suppression. Take `COc1cc(C(=O)NS(=O)(=O)c2ccccc2C)ccc1Cc1cn(C(F)F)c2ccc(NC(=O)OC3CCCC3)cc12`: the concentration for half-maximal inhibition (IC50) in assay [2] amounted to 1 nM; in the assay with U-937 it was 0.4 nM. In the assay on Cavia porcellus [4], this compound yielded an inhibition in vivo at 1 mg/kg of 58%.
Compound `COc1cc(C(=O)NS(=O)(=O)c2ccccc2C)ccc1Cc1cn(C=O)c2ccc(NC(=O)OC3CCCC3)cc12` returned an ED50 with Cavia porcellus [1] of 0.84 mg/kg. In addition, the IC50 in assay [2] came out at 1 nM; with U-937 it was 0.6 nM.
In the assay on Cavia porcellus [5], `COc1cc(C(=O)NS(=O)(=O)c2ccccc2C)ccc1Cc1cn(C(=O)N(C)C)c2ccc(NC(=O)OC3CCCC3)cc12` returned an inhibition in vivo at 1 mg/kg of 39%. In addition, the results for the IC50 (in assay [2]; with U-937) were 0.4 nM and 1 nM, respectively.
By Inhibition is commonly meant how much of the control response was suppressed. High values mean a response far below the control, low ones a response near the control. In the assay on Cavia porcellus [1], `COc1cc(C(=O)NS(=O)(=O)c2ccccc2C)ccc1Cc1cn(C(=O)NCCN(C)C)c2ccc(NC(=O)OC3CCCC3)cc12` yielded an Inhibition of 34%. In addition, the IC50 in assay [2] worked out at 0.5 nM; with U-937, 0.1 nM.
Regarding `COc1cc(C(=O)NS(=O)(=O)c2ccccc2C)ccc1Cc1cn(C(=O)NCCCc2ccccc2)c2ccc(NC(=O)OC3CCCC3)cc12`, it took a dose of 1.6 mg/kg to reach the 50% effect level in the assay on Cavia porcellus [1] (ED50). Besides, the values for the IC50 (in assay [2]; in the assay on U-937) were 0.5 nM and 0.1 nM, respectively.
Regarding `COc1cc(C(=O)NS(=O)(=O)c2ccccc2C)ccc1Cc1cn(C(=O)N(C)c2ccccc2)c2ccc(NC(=O)OC3CCCC3)cc12`, the IC50 worked out at 0.4 nM in assay [2] and 0.2 nM in the assay on U-937. In the assay on Cavia porcellus [3], the ED50 turned out to be 1.1 mg/kg.
`COc1cc(C(=O)NS(=O)(=O)c2ccccc2C)ccc1Cc1cn(C(=O)N2CCOCC2)c2ccc(NC(=O)OC3CCCC3)cc12`: the Inhibition in the assay on Cavia porcellus [1] is 8%. Besides, the IC50 is 0.4 nM in assay [2] and 2 nM in the assay with U-937.
On to `COc1cc(C(=O)NS(=O)(=O)c2ccccc2C)ccc1Cc1c[nH]c2ccc(NC(=O)OC3CCCC3)cc12` [N-DEALKYLATED DERIVATIVE], for which, in the assay on Cavia porcellus [5], testing at 1 mg/kg gave an inhibition in vivo of 40%. Besides, the values for the IC50 (in assay [2]; with U-937) were 1 nM and 2 nM, respectively.
`COc1cc(C(=O)NS(=O)(=O)c2ccccc2C)ccc1Cc1cn(C)c2ccc(NC(=O)OC3CCCC3)cc12` [ZAFIRLUKAST]: in the assay with Cavia porcellus [6], the ED50 is 0.9 mg/kg. In the assay with U-937, this compound came in with an IC50 of 1 nM.
